Data as given in PubChem BioAssay AID248 (DTP/NCI, 2004).
Where “and” joins values, the source holds several entries; their conditions need not be identical. Equal values may be shown once. Inconclusive results and toxic doses are left out. Rule as the data show it: active = T/C of 150% or more; inactive = T/C below 125%.

Tested on: L1210 leukemia ip in BDF1 mice, survival T/C
Assay: NCI In Vivo Anticancer Drug Screen. Data for tumor model L1210 Leukemia (intraperitoneal) in B6D2F1 (BDF1) mice
Conditions: endpoint: mean survival time, higher = longer survival
Outline: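 Tumor cells were implanted, animals were treated, and survival was followed. The result divides the treated measurement by the vehicle-control measurement.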

[1] = dose: 100.0 mg/kg/injection, schedule: Q01DX001 (ip), vehicle: saline
[2] = dose: 200.0 mg/kg/injection, schedule: Q01DX001 (ip), vehicle: saline
[3] = dose: 100.0 mg/kg/injection, schedule: Q04DX002 (ip), vehicle: Klucel (hydroxypropylcellulose) (HPC)
[4] = dose: 100.0 mg/kg/injection, schedule: Q04DX002 (ip), vehicle: saline with Tween-80
[5] = dose: 200.0 mg/kg/injection, schedule: Q04DX002 (ip), vehicle: Klucel (hydroxypropylcellulose) (HPC)
[6] = dose: 200.0 mg/kg/injection, schedule: Q04DX002 (ip), vehicle: saline with Tween-80
[7] = dose: 50.0 mg/kg/injection, schedule: Q04DX002 (ip), vehicle: Klucel (hydroxypropylcellulose) (HPC)
[8] = dose: 100.0 mg/kg/injection, schedule: Q04DX003 (ip), vehicle: Klucel (hydroxypropylcellulose) (HPC)
[9] = dose: 200.0 mg/kg/injection, schedule: Q04DX003 (ip), vehicle: Klucel (hydroxypropylcellulose) (HPC)
[10] = dose: 400.0 mg/kg/injection, schedule: Q04DX003 (ip), vehicle: Klucel (hydroxypropylcellulose) (HPC)
[11] = dose: 50.0 mg/kg/injection, schedule: Q04DX003 (ip), vehicle: saline
[12] = dose: 400.0 mg/kg/injection, schedule: Q01DX001 (ip), vehicle: saline
[13] = dose: 100.0 mg/kg/injection, schedule: Q01DX009 (ip), vehicle: Klucel (hydroxypropylcellulose) (HPC)
[14] = dose: 200.0 mg/kg/injection, schedule: Q01DX009 (ip), vehicle: Klucel (hydroxypropylcellulose) (HPC)
[15] = dose: 400.0 mg/kg/injection, schedule: Q01DX009 (ip), vehicle: Klucel (hydroxypropylcellulose) (HPC)
[16] = dose: 100.0 mg/kg/injection, schedule: Q01DX009 (ip), vehicle: saline
[17] = dose: 100.0 mg/kg/injection, schedule: Q04DX003 (ip), vehicle: saline
[18] = dose: 200.0 mg/kg/injection, schedule: Q01DX009 (ip), vehicle: saline
[19] = dose: 400.0 mg/kg/injection, schedule: Q01DX009 (ip), vehicle: saline
[20] = dose: 25.0 mg/kg/injection, schedule: Q04DX003 (ip), vehicle: Klucel (hydroxypropylcellulose) (HPC)
[21] = dose: 50.0 mg/kg/injection, schedule: Q01DX009 (ip), vehicle: Klucel (hydroxypropylcellulose) (HPC)
[22] = dose: 50.0 mg/kg/injection, schedule: Q04DX003 (ip), vehicle: Klucel (hydroxypropylcellulose) (HPC)

Measured: T/C

O=C(O)C1CCC[N-]C1.O=C(O)C1CCC[N-]C1.[Cl][Pt+2][Cl] (stereo unspecified)
inactive: dose: 5.0 mg/kg/injection, schedule: Q01DX009 (ip), vehicle: saline with Tween-80 95 % of control | dose: 10.0 mg/kg/injection, schedule: Q01DX009 (ip), vehicle: saline with Tween-80 103 % of control | dose: 20.0 mg/kg/injection, schedule: Q01DX009 (ip), vehicle: saline with Tween-80 106 % of control

CCC(CC)OC(=O)Nc1cccc(OC(=O)NC)c1
inactive: dose: 100.0 mg/kg/injection, schedule: Q04DX003 (ip), vehicle: saline with Tween-80 104 % of control | dose: 200.0 mg/kg/injection, schedule: Q04DX003 (ip), vehicle: saline with Tween-80 95 % of control

C=CCC1(CCCCC)C(=O)NC(=S)NC1=O
inactive: dose: 75.0 mg/kg/injection, schedule: Q01DX001 (ip), vehicle: saline 100 % of control | dose: 150.0 mg/kg/injection, schedule: Q01DX001 (ip), vehicle: saline 100 % of control

CC[N+](C)(C)CCCNC(=O)C12CC3CC(CC(C3)C1)C2
inactive: dose: 25.0 mg/kg/injection, schedule: Q04DX002 (ip), vehicle: saline 99 % of control | dose: 50.0 mg/kg/injection, schedule: Q04DX002 (ip), vehicle: saline 96 % of control

CCC(CO)(CO)C(=[N-])c1ccccc1O.CCC(CO)(CO)N=Cc1ccccc1O.[Co]
inactive: dose: 50.0 mg/kg/injection, schedule: Q01DX001 (ip), vehicle: saline 98 % of control | [1] 94 % of control | [2] 94 % of control

C1=NC(c2ccccc2)=CN(C2CCCCC2)C1(c1ccccc1)C1CCCCC1 (stereo unspecified)
inactive: dose: 50.0 mg/kg/injection, schedule: Q04DX002 (ip), vehicle: saline with Tween-80 99 % of control | [3] 92 % of control | [4] 105 % of control | [5] 98 % of control | [6] 96 % of control | dose: 400.0 mg/kg/injection, schedule: Q04DX002 (ip), vehicle: Klucel (hydroxypropylcellulose) (HPC) 98 % of control

N#CC1(Nc2ccc(-c3ccc(NC4(C#N)CCCC4)cc3)cc2)CCCC1
inactive: dose: 50.0 mg/kg/injection, schedule: Q01DX001 (ip), vehicle: carboxymethylcellulose (CMC) 90 % of control | dose: 100.0 mg/kg/injection, schedule: Q01DX001 (ip), vehicle: carboxymethylcellulose (CMC) 95 % of control | dose: 400.0 mg/kg/injection, schedule: Q01DX001 (ip), vehicle: carboxymethylcellulose (CMC) 88 % of control

O=c1cc(C(F)(F)F)[nH]c2ccccc12
inactive: dose: 25.0 mg/kg/injection, schedule: Q04DX002 (ip), vehicle: Klucel (hydroxypropylcellulose) (HPC) 106 % of control | [7] 98 % of control

CCCCCCCCCCCCCCCCCCNC(=O)N1CC1
inactive: dose: 100.0 mg/kg/injection, schedule: Q01DX009 (ip), vehicle: saline with Tween-80 93 % of control | [8] 88 % of control | dose: 200.0 mg/kg/injection, schedule: Q01DX009 (ip), vehicle: saline with Tween-80 94 % of control | [9] 100 % of control | dose: 400.0 mg/kg/injection, schedule: Q01DX009 (ip), vehicle: saline with Tween-80 93 % of control | [10] 93 % of control

Cc1cc(Cl)nc(Nc2nc3cc(Cl)c(Cl)cc3[nH]2)n1
inactive: dose: 12.5 mg/kg/injection, schedule: Q01DX009 (ip), vehicle: acetone 87 % of control and 92 % of control | dose: 12.5 mg/kg/injection, schedule: Q04DX003 (ip), vehicle: saline 95 % of control and 112 % of control | dose: 25.0 mg/kg/injection, schedule: Q01DX009 (ip), vehicle: acetone 87 % of control | dose: 25.0 mg/kg/injection, schedule: Q04DX003 (ip), vehicle: saline 94 % of control and 95 % of control | dose: 50.0 mg/kg/injection, schedule: Q01DX009 (ip), vehicle: acetone 88 % of control | [11] 94 % of control and 101 % of control | [1] 91 % of control | [2] 93 % of control | [12] 91 % of control

CC1OC2COC(C)OC2C(C(O)COC(c2ccccc2)(c2ccccc2)c2ccccc2)O1 (stereo unspecified)
inactive: [13] 93 % of control | [8] 98 % of control | [14] 95 % of control | [9] 97 % of control | [15] 101 % of control | [10] 95 % of control

O=C1/C(=C\c2ccccc2)Oc2cc(O)c(O)cc21
inactive: dose: 100.0 mg/kg/injection, schedule: Q01DX001 (ip), vehicle: saline with Tween-80 98 % of control

COc1cc(OC)c([N+](=O)[O-])cc1Cl
inactive: [13] 96 % of control | [8] 96 % of control | [14] 96 % of control | [9] 93 % of control | [15] 92 % of control | [10] 94 % of control

O=S1(=O)C(C(O)(c2ccccc2)c2ccccc2)CCC1C(O)(c1ccccc1)c1ccccc1 (stereo unspecified)
inactive: [13] 98 % of control | [8] 102 % of control | [14] 98 % of control | [9] 93 % of control | [15] 93 % of control | [10] 105 % of control

CCCC(=O)NO
inactive: [1] 97 % of control | [16] 102 % of control | [17] 109 % of control and 105 % of control | [2] 114 % of control | [18] 104 % of control | dose: 200.0 mg/kg/injection, schedule: Q04DX003 (ip), vehicle: saline 111 % of control and 96 % of control | [12] 108 % of control | [19] 114 % of control | dose: 400.0 mg/kg/injection, schedule: Q04DX003 (ip), vehicle: saline 112 % of control and 100 % of control

O=C(/C=C/c1cccc([N+](=O)[O-])c1)c1cccc([N+](=O)[O-])c1
inactive: dose: 12.5 mg/kg/injection, schedule: Q01DX009 (ip), vehicle: Klucel (hydroxypropylcellulose) (HPC) 94 % of control | dose: 25.0 mg/kg/injection, schedule: Q01DX009 (ip), vehicle: Klucel (hydroxypropylcellulose) (HPC) 92 % of control | [20] 94 % of control | [21] 87 % of control | [22] 103 % of control

CCCCCCC(CCCCCC)CC1CCCC1
inactive: dose: 50.0 mg/kg/injection, schedule: Q04DX002 (sc), vehicle: olive oil, sesame oil, peanut oil 103 % of control | dose: 100.0 mg/kg/injection, schedule: Q04DX002 (sc), vehicle: olive oil, sesame oil, peanut oil 97 % of control | dose: 200.0 mg/kg/injection, schedule: Q04DX002 (sc), vehicle: olive oil, sesame oil, peanut oil 97 % of control

CN1CN(C)CN(C)C1
inactive: dose: 25.0 mg/kg/injection, schedule: Q01DX009 (ip), vehicle: saline 105 % of control | dose: 50.0 mg/kg/injection, schedule: Q01DX009 (ip), vehicle: saline 108 % of control | [11] 102 % of control | [1] 101 % of control | [16] 110 % of control | [17] 102 % of control and 107 % of control | [2] 92 % of control | [12] 97 % of control

CC(=O)c1cccc(N=Cc2ccc(Cl)cc2Cl)c1
inactive: [13] 95 % of control | [14] 93 % of control | [15] 93 % of control

CC(=O)OC1CCCOC1OC(C)=O (stereo unspecified)
inactive: [1] 99 % of control | [16] 106 % of control | [2] 100 % of control | [18] 100 % of control | [12] 94 % of control | [19] 95 % of control

Cc1ccc(OCC(N)=O)cc1
inactive: [7] 100 % of control | [3] 113 % of control | [5] 103 % of control

CCCNC(=O)Oc1ccccc1-c1ccccc1
inactive: [4] 92 % of control | [6] 103 % of control | dose: 400.0 mg/kg/injection, schedule: Q04DX002 (ip), vehicle: saline with Tween-80 110 % of control

O=C(CCl)N1CCC(CC2(c3cc4ccccc4[nH]3)OCCO2)CC1
inactive: dose: 100.0 mg/kg/injection, schedule: Q04DX002 (ip), vehicle: other 97 % of control | dose: 200.0 mg/kg/injection, schedule: Q04DX002 (ip), vehicle: other 90 % of control | dose: 400.0 mg/kg/injection, schedule: Q04DX002 (ip), vehicle: other 94 % of control

COc1ccc2c(ccc3c2ncc2c(=O)[nH]n(C)c23)c1
inactive: [21] 93 % of control | [13] 93 % of control | [14] 93 % of control

CC1CCc2[nH]c3ccc4ccccc4c3c2C1 (stereo unspecified)
inactive: [20] 98 % of control | [22] 95 % of control | [8] 93 % of control

O=C(O)c1ccccc1C(=O)Nc1cc(Cl)ccc1Cl
inactive: [21] 94 % of control | [13] 98 % of control | [8] 98 % of control | [14] 93 % of control | [9] 89 % of control
